Where a name gives a salt, the structure may show the parent alone. Read-outs that look alike come from different tables or passages of the source.
Experiments:
[1] = Properties of polymorphic forms and salts (stability, solubility, hygroscopicity); type: physicochemical
Procedure: The polymorphic forms have different properties.
When a compound is administered as an oral drop formulation, a few drops of a concentrated, liquid formulation of said drug is measured out and added to a glass of water, juice or the like that the patient drinks. As an example, the antidepressant cipramil is provided as an oral drop formulation at 40 mg/ml.

[2] = Long-term effects on body weight, relapse prevention study in patients with major depressive disorder; type: in vivo, human; conditions: for Δ weight / ≥7% weight gain: MDD
Excerpt: The recruitment of patients took place over time, and since the end of the study was defined by the last patient having completed the 24 weeks study, some patients received up to 64 weeks double-blind placebo-controlled treatment. This study is also reported in poster NR4-14 presented at the 164th Annual Meeting of the American Psychiatric Association, May 14-18 2011, Honolulu, Hawaii, USA.
(§1) The tables below show the mean difference in weight relative to the start of the open label period and to the time of randomisation and the fraction of patients experiencing equal to or more than […] during the study, i.e. potentially clinically significant increase.

[3] = Long-term effects on body weight, relapse prevention study in patients with generalised anxiety disorder; type: in vivo, human; conditions: for Δ weight / ≥7% weight gain: GAD
Excerpt: The recruitment of patients took place over time, and since the end of the study was defined by the last patient having completed at least 24 weeks, some patients received up to 56 weeks double-blind placebo-controlled treatment.
as §1

5-HT3 receptor = biological target: T1, 5-HT3 receptor (Homo sapiens, UniProt P46098); conditions: in vitro; cited from earlier work
T1 sequence (P46098 24-478): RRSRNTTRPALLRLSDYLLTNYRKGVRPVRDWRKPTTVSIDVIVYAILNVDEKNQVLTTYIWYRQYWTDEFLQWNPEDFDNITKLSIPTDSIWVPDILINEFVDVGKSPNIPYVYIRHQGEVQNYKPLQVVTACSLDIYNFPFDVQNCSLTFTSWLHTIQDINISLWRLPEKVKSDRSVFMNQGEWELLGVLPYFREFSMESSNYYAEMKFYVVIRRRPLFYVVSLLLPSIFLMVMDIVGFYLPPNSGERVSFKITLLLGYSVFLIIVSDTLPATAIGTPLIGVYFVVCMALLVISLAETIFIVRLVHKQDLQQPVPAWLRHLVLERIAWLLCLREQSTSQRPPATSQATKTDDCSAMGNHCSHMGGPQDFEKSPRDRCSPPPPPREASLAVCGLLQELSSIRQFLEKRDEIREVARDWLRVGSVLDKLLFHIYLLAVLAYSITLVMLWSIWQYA

5-HT7 receptor = 5-HT7 receptor (Homo sapiens, UniProt P34969); conditions: in vitro; cited from earlier work
Sequence of 5-HT7 receptor (P34969 whole entry): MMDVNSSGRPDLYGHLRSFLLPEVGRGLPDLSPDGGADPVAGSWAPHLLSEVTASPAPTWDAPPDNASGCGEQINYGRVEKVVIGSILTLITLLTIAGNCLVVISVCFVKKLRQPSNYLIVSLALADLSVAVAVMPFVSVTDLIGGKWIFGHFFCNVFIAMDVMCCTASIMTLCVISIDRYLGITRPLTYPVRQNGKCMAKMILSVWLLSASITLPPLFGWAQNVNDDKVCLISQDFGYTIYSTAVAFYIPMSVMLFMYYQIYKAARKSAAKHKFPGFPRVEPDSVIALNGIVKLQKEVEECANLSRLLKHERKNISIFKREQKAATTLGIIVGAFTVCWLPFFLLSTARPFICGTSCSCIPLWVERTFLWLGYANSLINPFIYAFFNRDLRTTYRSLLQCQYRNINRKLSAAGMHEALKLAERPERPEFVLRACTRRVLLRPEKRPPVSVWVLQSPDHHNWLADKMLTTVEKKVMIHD

5-HT1B receptor = 5-HT1B receptor (Homo sapiens, UniProt P28222); conditions: in vitro; cited from earlier work
Sequence of 5-HT1B receptor (P28222 whole entry): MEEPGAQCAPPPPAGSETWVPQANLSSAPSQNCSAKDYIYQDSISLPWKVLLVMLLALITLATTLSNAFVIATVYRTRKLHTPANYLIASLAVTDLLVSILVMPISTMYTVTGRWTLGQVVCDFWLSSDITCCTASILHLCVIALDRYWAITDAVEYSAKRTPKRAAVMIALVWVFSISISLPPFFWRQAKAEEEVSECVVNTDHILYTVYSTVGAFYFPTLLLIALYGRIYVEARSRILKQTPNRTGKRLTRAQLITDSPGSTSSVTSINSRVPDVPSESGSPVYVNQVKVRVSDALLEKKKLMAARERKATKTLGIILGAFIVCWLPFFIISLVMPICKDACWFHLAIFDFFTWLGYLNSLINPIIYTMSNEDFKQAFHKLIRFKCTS

5-HT transporter = 5-HT transporter (Homo sapiens, UniProt P31645); conditions: in vitro; cited from earlier work
Sequence of 5-HT transporter (P31645 whole entry, species assumed): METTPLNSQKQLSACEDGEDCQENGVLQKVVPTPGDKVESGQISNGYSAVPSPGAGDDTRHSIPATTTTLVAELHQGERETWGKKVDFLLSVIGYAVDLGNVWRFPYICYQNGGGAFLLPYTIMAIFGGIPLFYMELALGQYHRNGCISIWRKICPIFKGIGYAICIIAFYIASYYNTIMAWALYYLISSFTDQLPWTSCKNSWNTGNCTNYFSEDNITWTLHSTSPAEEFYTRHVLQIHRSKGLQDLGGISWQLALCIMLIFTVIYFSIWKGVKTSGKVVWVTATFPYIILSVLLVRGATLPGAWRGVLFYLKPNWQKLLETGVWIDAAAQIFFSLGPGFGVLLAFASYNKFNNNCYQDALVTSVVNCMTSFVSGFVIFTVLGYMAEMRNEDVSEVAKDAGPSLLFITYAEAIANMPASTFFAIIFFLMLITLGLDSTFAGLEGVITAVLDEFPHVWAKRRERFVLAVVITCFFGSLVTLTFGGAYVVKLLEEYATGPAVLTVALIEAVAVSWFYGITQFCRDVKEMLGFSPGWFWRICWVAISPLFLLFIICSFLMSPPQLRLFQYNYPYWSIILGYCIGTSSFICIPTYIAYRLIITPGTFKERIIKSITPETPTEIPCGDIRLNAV

[4] = test system: neurotransmitters serotonin, noradrenalin, dopamine, acetylcholine and histamine; conditions: in vivo nonclinical; cited from earlier work
[5] = six weeks, cited from earlier work
[6] = long-term (up to two years) relapse prevention study; cited from earlier work
[7] = OCD patients; end of 2.5 years study; cited from earlier work
[8] = long-term study (26-32 weeks); cited from earlier work
[9] = six week study; cited from earlier work
[10] = 566 patients, eight weeks; cited from earlier work
[11] = 324 patients, eight weeks; cited from earlier work
[12] = week 12, relative to start of open label period (t = 0), 204 patients
[13] = week 24, relative to start of open label period (t = 0), 199 patients
[14] = week 24, relative to time of randomisation (t = 12 weeks), 199 patients
[15] = week 36, relative to start of open label period (t = 0), 157 patients
[16] = week 36, relative to time of randomisation (t = 12 weeks), 157 patients
[17] = week 48, relative to start of open label period (t = 0), 90 patients
[18] = week 48, relative to time of randomisation (t = 12 weeks), 90 patients
[19] = week 60, relative to start of open label period (t = 0), 52 patients
[20] = week 60, relative to time of randomisation (t = 12 weeks), 52 patients
[21] = week 72, relative to start of open label period (t = 0), 19 patients
[22] = week 72, relative to time of randomisation (t = 12 weeks), 19 patients
[23] = week 76, relative to start of open label period (t = 0), 3 patients
[24] = week 76, relative to time of randomisation (t = 12 weeks), 3 patients
[25] = week 20, relative to start of open label period (t = 0), 227 patients
[26] = week 32, relative to start of open label period (t = 0), 220 patients
[27] = week 32, relative to time of randomisation (t = 20 weeks), 221 patients
[28] = week 44, relative to start of open label period (t = 0), 179 patients
[29] = week 44, relative to time of randomisation (t = 20 weeks), 180 patients
[30] = week 56, relative to start of open label period (t = 0), 84 patients
[31] = week 56, relative to time of randomisation (t = 20 weeks), 84 patients
[32] = week 68, relative to start of open label period (t = 0), 28 patients
[33] = week 68, relative to time of randomisation (t = 20 weeks), 28 patients
[34] = week 76, relative to start of open label period (t = 0), 4 patients
[35] = week 76, relative to time of randomisation (t = 20 weeks), 4 patients

Cc1ccc(Sc2ccccc2N2CCNCC2)c(C)c1 (racemic) [DL lactate salt of Compound I, DL-lactate salt of 1-[2-(2,4-dimethylphenylsulphanyl)-phenyl]piperazine]
solubility [1]: high solubility

Cc1ccc(Sc2ccccc2N2CCNCC2)c(C)c1 [Compound I HBr, 1-[2-(2,4-dimethyl-phenylsulfanyl)phenyl]piperazine HBr]
weight gain versus placebo after long-term treatment ([2]; MDD patients, data of tables 1 and 2): no meaningful difference
Δ weight [2, 12]: 0.0 kg
≥7% weight gain [2, 12]: 2.0%
Δ weight [2, 13]: 0.3 kg
≥7% weight gain [2, 13]: 6.5%
Δ weight [2, 14]: 0.4 kg
≥7% weight gain [2, 14]: 2.0%
Δ weight [2, 15]: 0.6 kg
≥7% weight gain [2, 15]: 8.9%
Δ weight [2, 16]: 0.6 kg
≥7% weight gain [2, 16]: 6.4%
Δ weight [2, 17]: 0.7 kg
≥7% weight gain [2, 17]: 8.9%
Δ weight [2, 18]: 0.9 kg
≥7% weight gain [2, 18]: 8.9%
Δ weight [2, 19]: 0.4 kg
≥7% weight gain [2, 19]: 9.6%
Δ weight [2, 20]: 0.8 kg
≥7% weight gain [2, 20]: 13.5%
Δ weight [2, 21]: -0.2 kg
≥7% weight gain [2, 21]: 10.5%
Δ weight [2, 22]: 0.3 kg
≥7% weight gain [2, 22]: 10.5%
Δ weight [2, 23]: -2.3 kg
≥7% weight gain [2, 23]: 0.0%
Δ weight [2, 24]: -0.8 kg
≥7% weight gain [2, 24]: 0.0%
weight gain versus placebo after long-term treatment ([3]; combined data of tables 1-4 (MDD and GAD patients)): no meaningful difference
Δ weight [3, 25]: 0.3 kg
≥7% weight gain [3, 25]: 2.6%
Δ weight [3, 26]: 0.5 kg
≥7% weight gain [3, 26]: 3.6%
Δ weight [3, 27]: 0.3 kg
≥7% weight gain [3, 27]: 0.9%
Δ weight [3, 28]: 0.8 kg
≥7% weight gain [3, 28]: 8.4%
Δ weight [3, 29]: 0.5 kg
≥7% weight gain [3, 29]: 4.4%
Δ weight [3, 30]: 1.5 kg
≥7% weight gain [3, 30]: 17.9%
Δ weight [3, 31]: 1.1 kg
≥7% weight gain [3, 31]: 10.7%
Δ weight [3, 32]: 1.5 kg
≥7% weight gain [3, 32]: 10.7%
Δ weight [3, 33]: 1.7 kg
≥7% weight gain [3, 33]: 10.7%
Δ weight [3, 34]: 0.9 kg
≥7% weight gain [3, 34]: 0.0%
Δ weight [3, 35]: 1.6 kg
≥7% weight gain [3, 35]: 0.0%

Cc1ccc(Sc2ccccc2N2CCNCC2)c(C)c1 [Compound I, 1-[2-(2,4-dimethyl-phenylsulfanyl)phenyl]piperazine]
activity at 5-HT3 receptor (5-HT3 receptor): antagonist
activity at 5-HT7 receptor (5-HT7 receptor): antagonist
activity at 5-HT1B receptor (5-HT1B receptor): partial agonist
activity at 5-HT transporter (5-HT transporter): inhibitor
levels of serotonin, noradrenalin, dopamine, acetylcholine and histamine in specific areas of the brain [4]: enhances levels
changes in clinical laboratory results, vital signs, weight, or ECG parameters ([5]; MDD patients): no clinically relevant changes
treatment of depressive and anxious symptoms versus placebo ([5]; approximately 100 patients in each arm, MDD): separates significantly from placebo

CN(C)CCC=C1c2ccccc2CCc2ccccc21 [amitriptyline]
proportion of patients showing a PCS increase in body weight [6]: 22%

CN(C)CCCC1(c2ccc(F)cc2)OCc2cc(C#N)ccc21 (stereo not shown) [citalopram]
percentage of patients with PCS weight increase (7% or above compared to baseline) [7]: 14.3%

CN(C)CCCN1c2ccccc2CCc2ccc(Cl)cc21 [clomiptramine]
percentage of patients with PCS weight increase (7% or above compared to baseline) [7]: 34.8%

CNCCC(Oc1ccc(C(F)(F)F)cc1)c1ccccc1 (stereo not shown) [fluoxetine]
proportion of patients showing a PCS increase in body weight [8]: 6.6%
percentage of patients with PCS weight increase (7% or above compared to baseline) [7]: 8.7%

Fc1ccc([C@@H]2CCNC[C@H]2COc2ccc3c(c2)OCO3)cc1 [paroxetine]
proportion of patients showing a PCS increase in body weight [8]: 25.5%
weight gain [9]: no weight gain was noted
weight change [10]: small weight loss
effects on weight [11]: no substantial effects on weight
percentage of patients with PCS weight increase (7% or above compared to baseline) [7]: 14.3%

CN[C@H]1CC[C@@H](c2ccc(Cl)c(Cl)c2)c2ccccc21 [sertraline]
proportion of patients showing a PCS increase in body weight [8]: 4.2%
percentage of patients with PCS weight increase (7% or above compared to baseline) [7]: 4.5%

Reference: US20240293397A1 (H. Lundbeck A/S, priority 2010, published 2024)
